Laboratory results: US20250099420A1, “SMALL MOLECULE MODULATORS OF GPR139 COMPLEX” (University of Florida Research Foundation, Incorporated, priority 2022, published 2025)

Key:
parental HEK cells = test: HEK parental Antagonist Counterscreen Assay (non-transfected cells, acetylcholine control); assay type: cell-based; conditions: for EC50: Homo sapiens, HEK293, acetylcholine as control, scientific notation, molarity
From the text: C. […] The HEK parental counterscreen utilized the same cells but not transfected with the plasmid. The agonist and antagonist modes were run the same way as the primary screen but acetylcholine was used in place of GPR139 agonist as the control compound.
The HEK parental counterscreen utilized the same cells but not transfected with the plasmid. The antagonist modes assays utilized the cells being plated in the 1536 well plate overnight in growth media prior to dye loading in PDL coated plates and acetylcholine was used in place of GPR139 agonist as the control compound.
The HEK parental counterscreen utilized the same cells but not transfected with the plasmid. Acetylcholine was used in place of GPR139 agonist as the control compound. The cells were plated overnight, similar to the HEK antagonist counterscreen protocol.
The HEK parental counterscreens utilized the same cells but not transfected with the plasmid. Acetylcholine was used in place of GPR139 agonist as the control compound. The cells were plated overnight, similar to the HEK antagonist counterscreen protocol.
For each test compound, percent activation was plotted against compound concentration. A four parameter equation describing a sigmoidal dose-response curve was then fitted with adjustable baseline using Assay Explorer software (Symyx Technologies Inc.).

GPR139 [1] = molecular target: T1, GPR139 (Homo sapiens, UniProt Q6DWJ6); test: GPR139 Agonist titration / agonist counterscreen assay (calcium detection, HEK-GPR139 cells); assay type: cell-based; set-up: expressed in transfected cells; host or cells: HEK Aequorin cells, Maxcyte transient transfection; conditions: agonist counterscreen of the antagonists; for EC50: scientific notation, molarity, read-out: GRP139 Agonist activity EC50
T1 sequence (Q6DWJ6 1-353): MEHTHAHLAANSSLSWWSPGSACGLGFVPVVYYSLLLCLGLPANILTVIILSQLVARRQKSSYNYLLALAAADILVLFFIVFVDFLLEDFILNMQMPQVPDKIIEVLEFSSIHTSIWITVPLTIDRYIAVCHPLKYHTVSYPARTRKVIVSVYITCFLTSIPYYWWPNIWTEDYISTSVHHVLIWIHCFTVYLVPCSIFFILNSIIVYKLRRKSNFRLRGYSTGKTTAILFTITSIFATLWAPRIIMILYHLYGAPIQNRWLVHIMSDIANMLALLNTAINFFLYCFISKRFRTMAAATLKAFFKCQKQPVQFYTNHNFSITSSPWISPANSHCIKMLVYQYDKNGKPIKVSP
Experimental: GPR activity was assessed using a calcium detection assay. […] Negative control samples were treated with DMSO. […] Intracellular calcium was measured using Calcium 5.

GPR139 [2] = molecular target: T1, GPR139; test: GPR139 Antagonist titration assay (calcium detection, HEK-GPR139 cells, vs EC80 of S-JNJ-63533054); conditions: for GPR139 Antagonist Activity Averaged Max % Response (±St. Dev.): activity relative to known control; for GPR139 Antagonist Activity Lipophilic Efficiency (logD): based on logD; for GPR139 Antagonist Activity Lipophilic Efficiency (logP): based on logP; for GPR139 Antagonist Activity Hill Slope: fitted dose-response curve
GPR139 [3] = molecular target: T1, GPR139; test: [3H]JNJ-63533054 radioligand competition binding assay on membranes of HEK293T/17 cells; set-up: HA signal peptide (HASP) (N); expressed in transfected cells; host or cells: HEK293T/17 cells (membrane preparation); conditions: for inhibition at 10 µM: 10 μM of the indicated compound, (10 μM) JNJ-63533054 as printed in title; for Ki: Ki=IC50/(1+C/Kd), membranes of HEK293T/17 cells expressing human GPR139, read-out: Ki ± SEM
From the text: Eighteen compounds were selected for additional study. The compounds were re-synthesized and tested in radioligand binding competition assays for their ability to displace [^3H]-labeled reference agonist JNJ-63533054 on GPR139. The GPR139 construct used (pCDNA3.1-HASP-HA-GPR139) contained an N-terminal HA signal peptide (HASP), followed by an HA tag and human GPR139 (NM_001002911.4). HEK293T/17 cells were maintained in Dulbecco's modified Eagle's medium with 10% (v/v) fetal bovine serum, nonessential amino acids, and 1 mM sodium pyruvate.
Competition binding assay: Radioligand binding assay used human GPR139 expressed in HEK293T/17 cells. HEK293T/17 cells were transfected pCDNA3.1-HASP-HA-GPR139. 48 h after, cells were detached from plates by pipetting with PBS, centrifuged at 500×g for 5 min, and then the fluid was aspirated away. The cell pellets were frozen with liquid nitrogen and stored at −80° C. Pellets were homogenized in TE buffer (50 mM Tris-HCl, pH 7.4, 5 mM EDTA) and centrifuged at 1000×g at 4° C. for 5 min. Supernatant was collected and recentrifuged at 30,000×g at 4° C. for 30 min. The pellet was rehomogenized in TE buffer and incubated for 60 minutes at room temperature with eight concentrations of [^3H]JNJ-63533054 (specific activity 24.7 Ci/mmol) ranging from 0.024 nM to 400 nM. The binding reaction was terminated by filtration through GF/C filter (Waterman) followed by washes with cold TE buffer. Filters were dried in a hood overnight followed by the addition of scintillation fluid. Bound radioactivity was counted on a Hidex 600 liquid scintillation counter. […] Nonspecific binding was determined with 10 μM JNJ-63533054. The Kd values of the radioligands and IC50 of the antagonist were calculated by Graphpad Prism. Ki values were calculated as Ki=IC50/(1+C/Kd), where C is concentration of the radioligand.
Various concentrations of selected ligands were then added in the presence of 10 nM [^3H]-JNJ-63533054 and their ability to displace [^3H]labeling on cellular membranes was assessed. FIGS. 3B and 3C present representative data obtained in these experiments. […] The results of these experiments are presented in the Table 3 and confirm selective binding the compounds to GPR139 thereby validating their interaction with the intended target.

Compound	HEK antagonist activity Averaged Max % Response (±St. Dev.) (parental HEK cells)	EC50 (parental HEK cells)	GRP139 Agonist activity Averaged Max % Response (±St. Dev.) (GPR139 [1])	EC50 (GPR139 [1])	EC50 (GPR139 [2])	GPR139 Antagonist Activity Ligand Efficiency (GPR139 [2])	GPR139 Antagonist Activity Averaged Max % Response (±St. Dev.) (GPR139 [2])	GPR139 Antagonist Activity Lipophilic Efficiency (logD) (GPR139 [2])	GPR139 Antagonist Activity Lipophilic Efficiency (logP) (GPR139 [2])	GPR139 Antagonist Activity Hill Slope (GPR139 [2])	inhibition at 10 µM (GPR139 [3])	Ki (GPR139 [3])
CCN1C(=O)c2cccc3c(S(=O)(=O)Nc4cccc(F)c4)ccc1c23 [SR-01000110577]	24.57 ± 3.75%	> 14.1 µM	5.61 ± 4.33%	> 14.1 µM	6.9 µM	0.28	81.68 ± 2.49%	2.48	2.23	0.62	-117 ± 2.89%	8.03 ± 0.18 µM
COc1ccc(-c2noc(CN3CCCN(c4ccc(F)cc4)CC3)n2)c(OC)c1OC [SR-01000169333]	9.54 ± 10.14%	> 14.1 µM	2.42 ± 7.61%	> 14.1 µM	8.4 µM	0.22	66.19 ± 8.60%	1.64	1.37	1.11	64.5 ± 1.23%	4.09 ± 0.09 µM
O=C(CCCC(=O)OCC(Cl)=C(Cl)Cl)Nc1ccccc1F [SR-01000195221]	28.17 ± 14.51%	> 14.1 µM	3.53 ± 6.53%	> 14.1 µM	6.3 µM	0.33	86.87 ± 1.46%	1.71	1.71	0.88	77.7 ± 1.19%	9.98 ± 0.23 µM
CCOC(=O)c1ccc2nc(C)c3c(c2c1)OC(C(C)(Cl)Br)C3 (stereo not drawn) [SR-01000220077]	5.29 ± 23.62%	> 14.1 µM	29.53 ± 3.67%	> 14.1 µM	4.7 µM	0.32	82.15 ± 3.63%	1.23	1.20	0.74	77.8 ± 5%	7.31 ± 0.16 µM
CCCOC(=O)c1ccc(NC(=O)CSc2ccccc2)cc1 [SR-01000244770]	15.65 ± 7.33%	> 14.1 µM	7.91 ± 4.93%	> 14.1 µM	6.9 µM	0.31	82.77 ± 1.38%	1.07	1.07	1.77	56.3 ± 7.8%	146 ± 0.003 µM
Cc1cc(I)ccc1NC(=O)CSc1cccs1 [SR-01000253143]	22.82 ± 1.84%	> 14.1 µM	4.38 ± 3.28%	> 14.1 µM	4.3 µM	0.42	63.84 ± 2.29%	0.78	0.78	0.87	54.3 ± 5.98%	0.13 ± 0.01 µM
Cc1cccc(NC(=O)CCC(=O)OCc2ccc(Br)cc2)c1 [SR-01000258561]	50.40 ± 13.43%	13.8 µM	45.23 ± 2.15%	> 14.1 µM	2.3 µM	0.34	102.3 ± 0.93%	1.45	1.45	1.14	35.6 ± 21.2%	7.14 ± 0.16 µM
